Source: US9789096B2, “Methods and compositions for selective and targeted cancer therapy” (Board of Regents of the University of Texas System, priority 2013, dated 2017)
Read-outs that look alike come from different tables or passages of the source.

Tests used:
Format in all cases: cell-based, human
[1] = system: H1819; assay: Cell viability dose-response, H1819; conditions: for AC50: NCI-H1819, Table 8
Procedure: (§1) FIG. 6A. […] Cell viability is plotted vs. compound concentration. Compound was added to cells plated at 15% confluence in 96-well plates in RPMI-1640 media supplemented with 5% Fetal Bovine Serum and 2 mM L-Glutamine. After 4 days of incubation, ATP levels were measured using Cell Titer Glo (Promega). Data are presented as the average of 2 replicates ±SEM.
(§2) Selectivity may be measured by the half maximal inhibitory concentration (IC50), which, as used herein, is a measure of the effectiveness of a compound in killing cells. This quantitative measure indicates how much of a particular compound is needed to kill a particular cell population by half (e.g., as indicated by the amount of ATP). […] The IC50 can be determined by constructing a dose-response curve. The lower the IC50, the higher the potency, and the greater the difference between IC50 values for different cell lines (e.g., sensitive lines vs. insensitive lines, and sensitive lines vs. normal lines) the greater the selectivity. […]
(§3) With this information, we synthesized and tested a series of small molecules derived in conception from the oxalamide and chromone scaffold including N-acyl ureas, as shown in Tables 6-8. Each compound was tested in a 12-point dose-response study starting at 50 micromolar and decreasing in 3-fold increments to sub-nanomolar concentrations, in duplicate. Additionally, one or more additional cell line was tested in the same way.

[2] = system: H2122; assay: Cell viability dose-response, H2122; conditions: for AC50: NCI-H2122, Table 8
Procedure: as §1, §2, §3

[3] = system: H2009; assay: Cell viability dose-response, H2009; conditions: Homo sapiens, NCI-H2009, Table 8; 12-point dose-response starting at 50 micromolar
Procedure: as §1, §2, §3

[4] = system: HCC44; assay: Cell viability dose-response, HCC44; conditions: Homo sapiens, HCC44, Tables 3 and 4; read-out: IC50 (uM) vs indicated non-small cell lung cancer cell line HCC44
Procedure: as §1, §2, §3

[5] = Homo sapiens, NCI-H1819, Tables 3 and 4, read-out: IC50 (uM) vs indicated non-small cell lung cancer cell line H1819
[6] = Homo sapiens, NCI-H2122, Tables 3 and 4, read-out: IC50 (uM) vs indicated non-small cell lung cancer cell line H2122
[7] = Homo sapiens, NCI-H1819, 12-point dose-response starting at 50 micromolar, 3-fold increments, in duplicate, read-out: toxicity data, H1819
[8] = Homo sapiens, NCI-H2122, 12-point dose-response starting at 50 micromolar, 3-fold increments, in duplicate, read-out: toxicity data, H2122
[9] = Homo sapiens, 12-point dose-response starting at 50 micromolar

| Compound | IC50 [1, 7] | IC50 [2, 8] | further results |
| --- | --- | --- | --- |
| COc1ccc2nc(NC(=O)c3ccc([C@H](N)c4ccccc4)cc3)sc2c1 [SW208110] | – | – | IC50 [1, 5]: 5.97 µM; IC50 [2, 6]: 0.012 µM |
| COc1ccc(CCNC(=O)C(=O)Nc2c(Cl)cccc2Cl)cc1 [SW206890-1-A] | ≥ 49.5 µM | ≥ 49.5 µM | – |
| COc1ccc(CCNC(=O)C(=O)Nc2ccc(C)cc2OC)cc1 [SW206971-1] | ≥ 49.5 µM | ≥ 49.5 µM | – |
| O=c1c(Oc2ccccc2Br)coc2cc(OCc3cnn(-c4ccccc4)c3)ccc12 [SW 208585-1] | – | – | AC50 [3]: 35 µM; AC50 [2, 9]: 0.1 µM |
| O=c1c(Cc2ccccc2C(F)(F)F)coc2cc(OCc3cnn(-c4ccccc4)c3)ccc12 [SW209192-1] | – | – | AC50 [1, 9]: 49.5 µM; AC50 [2, 9]: 0.028 µM |
| C#CCOc1ccc2nc(NC(=O)c3ccc(C4(C(F)(F)F)N=N4)cc3)sc2c1 [SW208700-1] | – | – | IC50 [4]: 49.5 µM; IC50 [2, 6]: 7.92 µM |
| COc1ccc(CCNC(=O)C(=O)Nc2cc(Cl)c(F)c(Cl)c2)cc1 [SW206889-1-A] | ≥ 49.5 µM | ≥ 49.5 µM | – |
| COc1ccc(CCNC(=O)C(=O)Nc2ccc(Cl)c(C)c2)cc1 [SW206974-1] | ≥ 49.5 µM | 0.697 µM | – |
| O=c1c(Cc2ccc(Br)cc2)coc2cc(OCc3cnn(-c4ccccc4)c3)ccc12 [SW209191-1] | – | – | AC50 [1, 9]: 49.5 µM; AC50 [2, 9]: 0.087 µM |
| COc1ccc(CCNC(=O)C(=O)N2CCCCC2)cc1 [SW208030-1-A] | ≥ 49.5 µM | ≥ 49.5 µM | – |
| COc1ccc(CCNC(=O)C(=O)Nc2ccc(C(=O)c3ccc(OC)cc3)cc2)cc1 [SW208009-1-A] | ≥ 49.5 µM | 0.081 µM | – |
| COc1ccc(CCNC(=O)C(=O)Nc2cccc(F)c2)cc1 [SW2068S9-1-A] | ≥ 49.5 µM | 2.26 µM | – |
| COc1ccc(CCNC(=O)c2ccc3cccc(O)c3n2)cc1 [SW208056-1-A] | 29.8 µM | 30.2 µM | – |
| COc1ccc(CCNC(=O)c2ccc3ccccc3c2O)cc1 [SW208124-1-A] | 34.1 µM | 36.2 µM | – |
| COc1ccc(CCNC(=O)C(=O)Nc2ccc(Cl)cc2)cc1 [SW027951-2-A] | – | – | IC50 ([1]; 12-point dose-response starting at 50 micromolar, 3-fold increments, in duplicate, read-out: toxicity data, H1819): ≥ 49.5 µM; IC50 ([2]; 12-point dose-response starting at 50 micromolar, 3-fold increments, in duplicate, read-out: toxicity data, H2122): 0.28 µM |
| COc1ccc(NC(=O)Nc2ccc(OC)cc2)cc1 [SW113878-2-A] | ≥ 49.5 µM | ≥ 49.5 µM | – |
| COc1ccc(CCCNC(=O)NCc2ccccc2)cc1 [SW208120-1-A] | ≥ 49.5 µM | 38.9 µM | – |
| COc1ccc(CCNC(=O)C(=O)Nc2ccc(Cl)nc2)cc1 [SW208127-1-A] | ≥ 49.5 µM | 0.438 µM | – |
| COc1ccc(CCNC(=O)C(=O)N2CCN(C)CC2)cc1 [SW208048-1-A] | ≥ 49.5 µM | ≥ 49.5 µM | – |
| COc1ccc(CCNC(=O)C(=O)Nc2ccc(OC)c(C)c2)cc1 [SW206970-1] | ≥ 49.5 µM | 0.809 µM | – |
| COc1ccc(CCNC(=O)C(=O)NC2CC2)cc1 [SW208031-1-A] | ≥ 49.5 µM | ≥ 49.5 µM | – |
| COc1ccc(CCNC(=O)C(=O)Nc2cncc(C)c2)cc1 [SW208140-1-A] | 16.5 µM | 2.62 µM | – |
| COc1ccc(CCNC(=O)C(=O)Nc2ccc(F)cc2)cc1 [SW206961-1] | ≥ 49.5 µM | 0.286 µM | – |
| CCCOc1ccc2nc(NC(=O)c3ccc(C(=O)c4ccccc4)cc3)sc2c1 [SW208186] | – | – | IC50 [1, 5]: 13 µM; IC50 [2, 6]: 0.107 µM |
| COc1ccc(CCNC(=O)C(=O)Nc2ccc(Cl)cc2C)cc1 [SW206926-1] | ≥ 49.5 µM | ≥ 49.5 µM | – |
| COc1ccc(CCNC(=O)C(=O)Nc2c(Br)cccc2Br)cc1 [SW206887-1-A] | ≥ 49.5 µM | ≥ 49.5 µM | – |
